Results taken from patent US20250206713A1, “2-[(2-OXO-4-PHENYL-2H-CHROMEN-7-YL)OXY] PROPANAMIDO DERIVATIVES” (LUNELLA BIOTECH, INC., priority 2022, published 2025).
“Also recorded” adds a separate entry of the source. Like-named read-outs stand apart in the source and are kept apart here. One block for each molecule: values may come before it.

Key:
MCF-7 cells [1] = experiment: 3D anchorage independent growth assay (mammosphere formation assay); type: cell-based, human; details: for IC50: MCF-7 mammosphere formation, approximate, read from figure, read-out: IC50 against MCF-7 cells (mammosphere formation); for inhibition of MCF-7 cells across tested concentrations (mammosphere formation): in words, concentration range as given in the value; for potency relative to Compound [I], MCF-7 mammosphere formation: times / fold versus Compound [I]
Description: The medium was changed 2-3 times/week.
3D Anchorage Independent Growth Assay: This assay is also referred to as the mammosphere formation assay. A single-cell suspension was prepared using enzymatic, and manual disaggregation (25-g needle). Then, cells were plated at a density of 500 cells/cm2 in mammosphere medium (DMEM-F12+1X B-27 Plus Supplement+20 ng/ml EGF+Pen/Strep) under non-adherent conditions, in culture dishes pre-coated with (2-hydroxyethylmethacrylate) (poly-HEMA, Sigma Aldrich Inc.), called “mammosphere plates.” Cells were grown for 5 days and maintained in a humidified incubator at 37° C. After 5 days of culture, 3D-mammospheres >50 μm were counted using an eye piece (“graticule”), and the percentage of cells plated which formed spheres was calculated and is referred to as percent mammosphere formation, and was normalized to one (1=100% MFE). 3D mammosphere formation efficiency (MFE) was analyzed in both the ATP-low and ATP-high sub-populations of cells. All 3D mammosphere experiments were performed in triplicate, at least 3 times independently.

BJ1-hTERT cells [2] = experiment: SRB assay (cell viability) on BJ1-hTERT cells; details: 72 hours
Description: (§3) The human breast adenocarcinoma cell line MCF-7 was from the American Type Culture Collection (ATCC). hTERT-BJ1 cells were from Clontech, Inc. MCF-7 and hTERT-BJ 1 cells were grown in DMEM supplemented with 10% fetal bovine serum, GlutaMAX and 1% penicillin-streptomycin and incubated at 37 C in a humidified 5% C02 incubator. The medium was changed 2-3 times/week.
(§4) The inventors initially used the sulphorhodamine (SRB) assay, which is based on the measurement of cellular protein content. After treatment for 72 hours in 96-well plates, cells were fixed with 10% trichloroacetic acid (TCA) for 1 hour in the cold room, and were dried overnight at room temperature. Then, cells were incubated with SRB for 15 min, washed twice with 1% acetic acid, and air dried for at least 1 hour. Finally, the protein-bound dye was dissolved in a 10 mM Tris, pH 8.8 solution and read using the plate reader at 540-nm. […] Prominent cytotoxicity was defined as fewer than 30% of cells still on the plate.

MCF-7 cells [3] = experiment: SRB assay (cell viability) on MCF-7 cells; details: for concentration at which cytotoxicity towards MCF-7 cells starts (SRB assay): 72 hours; for cytotoxicity towards MCF-7 cells (SRB assay): in words
Description: as §3, §4

BJ1-hTERT cells [4] = test system: BJ1-hTERT cells
Description: as §3, §4

MCF-7 cells [5] = test system: MCF-7 cells
Description: as §3, §4

adherent MCF7 cells [6] = experiment: Glycolytic function analysis (ECAR); type: cell-based, human; details: 2.5 μM, versus control
Description: (§1) FIGS. 11A-D show mitochondrial respiration, basal respiration, maximal respiration, and ATP production results for metabolic flux analysis of adherent MCF7 cells were treated with Compound [III] at 2.5 μM. After treatment, the mitochondrial oxygen consumption rate (OCR) was measured using the Seahorse XFe96 analyzer. Data is expressed as percentage of OCR versus control.
FIGS. 12A-D show the results of glycolytic function analysis for treatment with Compound [III] at 2.5 μM. Glycolytic function, basal glycolysis, induced glycolysis, and compensatory glycolysis, respectively. […] All data was normalized for cell number. Statistical analysis was conducted using one-way ANOVA.

adherent MCF7 cells [7] = experiment: Metabolic flux analysis, mitochondrial oxygen consumption rate (Seahorse XFe96); type: cell-based, human; details: 2.5 μM, versus vehicle-alone control
Description: as §1

[8] = test system: human breast tumors initiated from the MDA-MB-231 cell line in chicken embryos; experiment: CAM assay, tumor growth; type: in vivo; details: MDA-MB-231 tumors, treated daily for 8 days, different concentrations
Description: (§2) Further evaluation of both efficacy and toxicity was performed on human breast tumors initiated from the MDA-MB-231 cell line in chicken embryos using the chick chorioallantoic membrane assay (“CAM Assay”) available from Inovotion (Cambridge, Massachusetts). […] An inoculum of 1×10^6 MDA-MB-231 cells was added onto the CAM of each egg (day E9) and then eggs were randomized into groups. On day E10, tumors were detectable and they were then treated daily for 8 days with vehicle alone (1% DMSO in PBS), or a compound of the present approach. After 8 days of drug administration, on day E18 all tumors were weighed, and the lower CAM was collected to evaluate the number of metastatic cells, as analyzed by qPCR with specific primers for Human Alu sequences.

[9] = test system: MDA-MB-231 cancer cell metastasis; experiment: CAM assay, metastatic invasion (qPCR for Human Alu sequences in lower CAM); type: in vivo; details: MDA-MB-231, lower CAM, treated daily for 8 days, different concentrations
Description: as §2

chick embryo = experiment: CAM assay, chick embryo toxicity; type: in vivo, chicken; details: chick embryos; for Alive / Dead: of 18 total
Description: as §2

IC50 (MCF-7 cells [1]; Homo sapiens, MCF7): ~5 µM
Molecule: CCCCCCCCCCCCCC(=O)Nc1ccc(-c2cc(=O)oc3cc(O[C@H](C)C(=O)N4CCC[C@H](C(=O)O)C4)ccc23)c(Cl)c1 [Compound [II], (3S)-1-[(2R)-2-[4-[2-Chloro-4-(tetradecanoylamino)phenyl]-2-oxo-chromen-7-yl]oxypropanoyl]piperidine-3-carboxylic acid]
inhibition at 10 µM (MCF-7 cells [1]; Homo sapiens, MCF7, at 10 μM): > 50% | inhibition at 100 µM (MCF-7 cells [1]; Homo sapiens, MCF7): 100% | inhibition of MCF-7 cells across tested concentrations (mammosphere formation) (MCF-7 cells [1]): dose-dependent inhibition of MCF-7 cells at all tested concentrations, ranging from 0.1 μM to 100 μM | potency relative to Compound [I], MCF-7 mammosphere formation (MCF-7 cells [1]): 10 | concentration at which cytotoxicity towards BJ1-hTERT cells starts (SRB assay) (BJ1-hTERT cells [2]): ≥ 50 µM | concentration at which cytotoxicity towards MCF-7 cells starts (SRB assay) (MCF-7 cells [3]): ≥ 50 µM

Molecule: CCCCCCCCCCCCCC(=O)Nc1cc(F)ccc1-c1cc(=O)oc2cc(O[C@H](C)C(=O)N(CC)C(=O)NCCCN(C)C)ccc12 [Compound [IV], N-[2-[7-[(1R)-2-[3-(Dimethylamino)propylcarbamoyl-ethyl-amino]-1-methyl-2-oxo-ethoxy]-2-oxo-chromen-4-yl]-5-fluoro-phenyl]tetradecanamide]
inhibition at 2.5 µM (MCF-7 cells [1]; Homo sapiens, MCF7, at 2.5 μM): > 50% | inhibition of MCF-7 cells (mammosphere formation) (MCF-7 cells [1]; at 10 μM): near complete inhibition | inhibition of MCF-7 cells across tested concentrations (mammosphere formation) (MCF-7 cells [1]): dose-dependent inhibition of MCF-7 cells at all tested concentrations, ranging from 1 μM to 10 μM | concentration at which cytotoxicity towards MCF-7 cells starts (SRB assay) (MCF-7 cells [3]): ≥ 5 µM

Molecule: C[C@@H](Oc1ccc2c(-c3ccc(F)cc3Cl)cc(=O)oc2c1)C(=O)N1CCC[C@H](C(=O)O)C1 [Compound [I], 3-piperidinecarboxylic acid, 1-[(2R)-2-[[4-(2-chloro-4-fluorophenyl)-2-oxo-2H-1-benzopyran-7-yl]oxy]-1-oxopropyl]-, (3S)-, reference compound]
cytotoxicity towards BJ1-hTERT cells (SRB assay) (BJ1-hTERT cells [4]): did not exhibit cytotoxicity | cytotoxicity towards MCF-7 cells (SRB assay) (MCF-7 cells [5]): did not exhibit cytotoxicity | IC50 (MCF-7 cells [1]; Homo sapiens, MCF7): ~50 µM | inhibition at 100 µM (MCF-7 cells [1]; Homo sapiens, MCF7): > 50% | inhibition of MCF-7 cells (mammosphere formation) (MCF-7 cells [1]; at 5 μM): showed inhibition

Molecule: CCCCCCCCCCCCCC(=O)Nc1cc(F)ccc1-c1cc(=O)oc2cc(O[C@H](C)C(=O)O)ccc12 [Compound [VII], (2R)-2-[4-[4-Fluoro-2-(tetradecanoylamino)phenyl]-2-oxo-chromen-7-yl]oxypropanoic acid]
inhibition at 1 µM (MCF-7 cells [1]; Homo sapiens, MCF7, at 1 μM): > 50% | inhibition at 100 µM (MCF-7 cells [1]; Homo sapiens, MCF7): 100% | inhibition of MCF-7 cells across tested concentrations (mammosphere formation) (MCF-7 cells [1]): inhibitory activity can be seen at all tested concentrations, from 1 μM to 100 μM | cytotoxicity towards MCF-7 cells (SRB assay) (MCF-7 cells [3]): little toxicity across the tested concentrations below 100 μM

Molecule: CCCCCCCCCCCCCC(=O)Nc1ccc(-c2cc(=O)oc3cc(O[C@H](C)C(=O)O)ccc23)c(Cl)c1 [Compound [VI], (2R)-2-[4-[2-chloro-4-(tetradecanoylamino)phenyl]-2-oxo-chromen-7-yl]oxypropanoic acid]
inhibition at 10 µM (MCF-7 cells [1]; Homo sapiens, MCF7, at 10 μM): > 50% | inhibition of MCF-7 cells across tested concentrations (mammosphere formation) (MCF-7 cells [1]): inhibitory activity can be seen at all tested concentrations, from 1 μM to 100 μM | cytotoxicity towards MCF-7 cells (SRB assay) (MCF-7 cells [3]): little toxicity across the tested concentrations

Molecule: CCCCCCCCCCCCCC(=O)Nc1ccc(-c2cc(=O)oc3cc(O[C@H](C)C(=O)N(CC)CC(=O)NCCN(C)C)ccc23)c(Cl)c1 [Compound [V], N-[3-Chloro-4-[7-[(1R)-2-[[2-[2-(dimethylamino)ethylamino]-2-oxo-ethyl]-ethyl-amino]-1-methyl-2-oxo-ethoxy]-2-oxo-chromen-4-yl]phenyl]tetradecanamide]
inhibition at 0.5 µM (MCF-7 cells [1]; Homo sapiens, MCF7, at 0.5 μM): > 50% | inhibition at 5 µM (MCF-7 cells [1]; Homo sapiens, MCF7, at 5 μM): 100% | inhibition of MCF-7 cells across tested concentrations (mammosphere formation) (MCF-7 cells [1]): effectively inhibited MCF-7 cells at all tested concentrations, ranging from 0.5 μM to 10 μM | concentration at which cytotoxicity towards BJ1-hTERT cells starts (SRB assay) (BJ1-hTERT cells [2]): ≥ 5 µM | concentration at which cytotoxicity towards MCF-7 cells starts (SRB assay) (MCF-7 cells [3]): ≥ 5 µM

Molecule: tert-Butyl-N-[3-chloro-4-[7-[(1R)-2-[[2-[2-(dimethylamino)ethylamino]-2-oxo-ethyl]-ethyl-amino]-1-methyl-2-oxo-ethoxy]-2-oxo-chromen-4-yl]phenyl]carbamate [Compound [III]]
ECAR levels (glycolysis) (adherent MCF7 cells [6]): largely comparable between the control and the demonstrative compound; also recorded: little or no effects on glycolysis | ATP production levels (adherent MCF7 cells [7]): significantly inhibited | basal OCR (basal respiration) (adherent MCF7 cells [7]): significantly inhibited | maximal OCR (maximal respiration) (adherent MCF7 cells [7]): significantly inhibited | inhibition of MCF-7 cells across tested concentrations (mammosphere formation) (MCF-7 cells [1]): dose-dependent inhibition of MCF-7 cells at all tested concentrations, ranging from 1 μM to 10 μM | potency relative to Compound [I], MCF-7 mammosphere formation (MCF-7 cells [1]): twenty-fold improvement | concentration at which cytotoxicity towards BJ1-hTERT cells starts (SRB assay) (BJ1-hTERT cells [2]): ≥ 10 µM | tumor growth (CAM assay) [8]: dose-dependent reduction in tumor growth | metastatic invasion (CAM assay) [9]: dose-dependent reduction in metastasis | % Alive (chick embryo; 100 μM): 83.33% | % Dead (chick embryo; 100 μM): 16.67% | Alive (chick embryo; 100 μM): 15 | Dead (chick embryo; 100 μM): 3 | % Alive (chick embryo; 250 μM): 100% | % Dead (chick embryo; 250 μM): 0% | Alive (chick embryo; 250 μM): 18 | Dead (chick embryo; 250 μM): 0 | % Alive (chick embryo; 500 μM): 94.44% | % Dead (chick embryo; 500 μM): 5.56% | Alive (chick embryo; 500 μM): 17 | Dead (chick embryo; 500 μM): 1 | toxicity assessment (CAM assay) (chick embryo; in words): non-toxic towards normal cells | concentration at which cytotoxicity towards MCF-7 cells starts (SRB assay) (MCF-7 cells [3]): ≥ 10 µM
